From US12533403B2, “Peptide conjugated particles” (NORTHWESTERN UNIVERSITY, priority 2013, dated 2026)
Entries after “also recorded” stand apart in the source; their conditions may differ. No end group written: not given here.

Tests used:
[1] = system: spontaneous Type 1 diabetes; assay: Spontaneous type 1 diabetes in NOD mice; type: in vivo; details: iv at 6, 8, and 10 weeks of age; diabetes = blood glucose >250 mg/dL
Description: NOD mice were treated with either BSA (N=22) or insulin (N=23) coupled PLG particles via intravenous administration at 6, 8, and 10 weeks of age. The mice were then assayed for the development of diabetes which was defined as blood glucose >250 mg/dL.

[2] = system: PLP139-151/CFA-induced EAE; assay: Anaphylaxis on iv injection during EAE remission; type: in vivo, SJL/J mice; details: iv on day 21 (remission) relative to disease induction
Description: EAE was induced in six to eight week old female SJL/J mice by subcutaneous injection of PLP139-151 in CFA, and development of clinical disease was monitored and recorded (FIG. 5B). On day 21 relative to disease induction, mice were given iv injections of soluble PLP139-151 (clear squares), soluble OVA323-339 (clear circles), or the same peptides coupled to PLG nanoparticles (solids). Temperature of animals was monitored and recorded every 10 minutes for 1 hour following injection (FIG. 5A).

[3] = system: Relapsing Experimental Autoimmune Encephalitis (R-EAE); assay: Treatment of R-EAE at day 10 by different routes of administration; type: in vivo, mice
Description: Experiments were conducted during development of embodiments of the present invention to investigate the ability of the PLG-PLP139-151 particles to treat disease rather than prevent disease, and to determine whether the route of administration affected the development of disease. Mice were immunized at day 0 with PLP139-151 and an adjuvant. Mice normally have maximal clinical scores at day 12-14. In this model, the mice were treated at day 10 with the PLG-PLP139-151 particles or with control PLG-OVA323-339 particles either via intravenous (iv) administration, intraperitoneal (ip) administration, subcutaneous (sc) administration, or orally. […] This is in contrast to animals treated with PLP139-151 polystyrene particles, whereby >70% of animals where observed to die from anaphylaxis.

[4] = system: adoptive EAE (PLP139-151-activated blasts); assay: Therapeutic tolerance in adoptive transfer (and active) EAE; type: in vivo, SJL/J mice
Description: Experiments were conducted during development of embodiments of the present invention to investigate a second model of active disease termed adoptive transfer. Rather than immunizing the animals with the peptide, the lymphocytes from the spleen of mice with active disease were transferred to a recipient, who would subsequently develop disease. Experiments were conducted during development of embodiments of the present invention to characterize the ability of the PLG nanoparticles to deactivate the adoptively transferred activated effector cells.
Therapeutic tolerance induced by PLP139-151-PLG particles was compared in active and adoptive EAE. Adoptive EAE was induced in six to eight-week old female SJL/J mice by adoptive transfer of 2.5×10^6 PLP139-151-activated blasts. Mice were injected iv with PLP139-151 (squares) or OVA323-339 (circles) peptide coupled to 500 nm PLG nanoparticles 2 days (FIG. 14A), 14 days (FIG. 14C), 18 days (FIG. 14E), or 21 days (FIG. 14F) following disease induction. Clinical disease scores were compared to those following treatment with antigen-coupled splenocytes (FIG. 14A). Brain and spinal cord were collected from PLP139-151- or OVA323-339-tolerized mice for histological analysis on day 42. Sections from mice from panel A were stained for PLP protein and CD45 (FIG. 14B).
Mice were injected iv with PLP139-151-SP, PLP139-151-PLG, or OVA323-339-SP, or OVA323-339-PLG peptide coupled to 500 nm nanoparticles 10 days (FIG. 15A) or 2 days (FIG. 15B) following disease induction and the mean clinical score was determined.
SJL/J mice were injected i.v. with 500 nm PLG nanoparticles coupled with PLP139-151 (squares) or OVA323-339 (circles) 2 days following EAE induction by adoptive transfer. At the peak of disease (day 14) brains and spinal cords were removed and the number of lymphocytes (FIG. 16B), APCs (FIG. 16C), microglia (FIG. 16D), peripheral dendritic cells (FIG. 16E), myeloid dendritic cells (FIG. 16F) and macrophages (FIG. 16G) were enumerated by flow cytometry. The gating strategy for these populations is depicted in (FIG. 16A). CNS cell preparations were stimulated with PMA and ionomycin for 5 h prior to intracellular staining for IL-17A and IFN-γ (FIG. 16H).
To test the effect of treatment with an anti-PD-1 antibody on PLP139-151 induced tolerance in mice with adoptive EAE, on Day 0, mice received 3×10^6 PLP139-151 activated T-cell blasts via intravenous administration. On Day 2, they received PLP139-151 or OVA323-339 encapsulated in PLG particles via intravenous administration with either PBS or an anti-PD-1 antibody. On days 4, 6, 8, 10, and 12 all animals received either 250 μg anti-PD-1 antibody or PBS. […]

[5] = system: cervical spinal cord of R-EAE mice; assay: Spinal cord histology and in vivo imaging in EAE
Description: An additional therapeutic tolerance strategy was performed by delivering PLP139-151-PLG or OVA323-339 PLG to mice. […] Mice were treated with PLP-PLG or OVA323-339-PLG and the tissue was retrieved at day 40. The cervical spinal cord was isolated and sectioned to investigate the immune response within the CNS, which underlies the pathology of R-EAE and multiple sclerosis.
Animals were treated with Complete Freund's Adjuvant (CFA), OVA323-339 PLG particles, or PLP139-151-PLG particles. The clinical scores and percent incidence of EAE were determined (FIG. 10B) and the spinal cords observed via in vivo imaging (FIGS. 10A and 11). […] The bar graphs give the numerical numbers to the signal strength shown in the brain and SC scans.

[6] = system: Relapsing Experimental Autoimmune Encephalitis (R-EAE); assay: Prophylactic tolerance induction in PLP139-151/CFA-induced R-EAE; type: in vivo, SJL/J mice; details: for clinical score (disease induction): 500 nm particles given on day −7 relative to immunization, N=5
Th1 and Th17 responses = assay: Induction of antigen-specific Th1 and Th17 responses (draining lymph node cells); type: in vivo, BALB/c mice; details: particles iv Day −7; measured at Day 10
Description: To determine whether administration of antigen-coupled particles inhibit induction of T-helper cells, either MOG35-55-PLG or OVA323-339-PLG particles were administered intravenously to BALB/c mice at Day −7. On Day 0, OVA323-339-PLG particles and Complete Freund's Adjuvant (CFA) were administered subcutaneously to the mice. The animals were re-stimulated with either MOG35-55-PLG or OVA323-339-PLG particles on Day 10 and the draining lymph node cells were isolated. The CPM and levels of IL-17, GM-CSF, IFN-γ, IL-10, and IL-4 were measured at Day 10.

[7] = system: OVA/Alum pre-sensitized mice; assay: Anaphylaxis-induced temperature drop in OVA/Alum pre-sensitized animals; type: in vivo; details: iv on day 28; within 1 hour of delivery
Description: Due to the presence of active disease, anaphylaxis to the antigens is a concern, which could result in immediate mortality, and has been described with polystyrene bound particles. Anaphylaxis is associated with a significant drop in body temperature. To test whether intravenous administration of OVA-PLG induces an anaphylaxis-induced temperature drop in pre-sensitized animals, mice were immunized at day 0 with 10 μg OVA/Alum via intraperitoneal injection. On day 14, the mice were again immunized with 10 μg OVA/Alum via intraperitoneal injection, and then tolerized with OVA-PLG administered intravenously on day 21. On day 28, the mice were then tolerized with either OVA-PLG particles or OVA via intravenous administration.

Molecule: insulin coupled PLG particles: insulin coupled PLG particles
- percentage of mice that did not develop diabetes over 300 days [1]: 69.6%

Molecule: PLP139-151-PLG: immunodominant proteolipid protein PLP139-151 epitope coupled to 500 nm PLG nanoparticles
- anaphylaxis-associated mortality [2]: does not result in any anaphylaxis-associated mortality
- mean clinical scores ([3]; administered intravenously, at most time points): 0
- efficiency of tolerance by route of administration ([3]; treated at day 10, iv, ip, sc or oral): most efficient when the PLG-PLP139-151 particles are administered either intravenously or intraperitoneally
- tolerance induction (mean clinical score) in active and adoptive EAE ([4]; 500 nm particles iv after disease induction (10 days active, 2 days adoptive)): tolerance is induced; also recorded: reduced disease; also recorded: induces tolerance
- infiltration of central nervous system immune cells ([4]; iv 2 days after adoptive transfer, brains and spinal cords at day 14, flow cytometry): drastically reduced
- mean clinical score ([4]; treated at day 2, all but two time points through day 40): 0
- mean clinical score at the other two time points ([4]; treated at day 2, through day 40): 0.25
- blood brain barrier (BBB) disruption and macrophage activation in the spinal cord ([5]; in vivo imaging (Angiosense, prosense)): inhibits blood brain barrier (BBB) disruption and macrophage activation
- immune cell infiltration, inflammation and demyelination of the spinal cord ([5]; tissue retrieved at day 40): inhibits cervical spinal cord inflammation and demyelination; also recorded: reduction in immune cell infiltration within the spinal cord
- staining for CD45, CD4, and CD11b in spinal cord ([5]; tissue retrieved at day 40): minimal staining
- clinical scores between days 20 and 30 ([6]; 500 nm particles given on day −7, days 20 to 30): under 1
- clinical score (disease induction) ([6]; listed as PLG-PLP139-151): specifically prevented EAE development
- clinical score (disease induction) ([6]; listed as PLP139-151-PLGA): 0
- mean clinical score with anti-CD25 antibody compared with control IgG antibody ([6]; anti-CD25 on Day −9, particles plus antibody on Day −7): greater mean clinical score
- delayed-type hypersensitivity (DTH) responses to immunizing PLP139-151 epitope ([6]; prophylactic treatment on day −7): lack of delayed-type hypersensitivity (DTH) responses
- induction of R-EAE by type of particle (mean clinical score, mean cumulative score) ([6]; treated on day −7, N=5 per group): more effective in down-regulating induction of R-EAE

Molecule: PLP139-151 polystyrene particles: PLP139-151 bound to polystyrene particles (CHCLGKWLGHPDK; cysteine pairing not given here; also: bound to polystyrene particles; UniProt P60202 139-151, looked up, fragment) [reference compound]
- animals observed to die from anaphylaxis ([3]; mouse, in vivo): > 70%

Molecule: BSA coupled PLG particles: BSA coupled PLG particles (control) [reference compound]
- percentage of mice that did not develop diabetes over 300 days [1]: 22.7%

Molecule: OVA323-339-PLG: control peptide OVA323-339 coupled to PLG particles (KISQAVHAAHAEINEAG; also: coupled to PLG particles; UniProt P01012 323-339, looked up, fragment) [reference compound]
- Th1 and Th17 responses (CPM, IL-17, GM-CSF, IFN-γ, IL-10, IL-4) (Th1 and Th17 responses): inhibited the Th1 and Th17 responses
- staining for CD45, CD4, and CD11b in spinal cord ([5]; tissue retrieved at day 40): positive staining
- clinical score (disease induction) [6]: did not prevent disease induction

B1: soluble OVA: soluble ovalbumin given intravenously (protein, UniProt P01012 2-386, looked up)
Ovalbumin: GSIGAASMEFCFDVFKELKVHHANENIFYCPIAIMSALAMVYLGAKDSTRTQINKVVRFDKLPGFGDSIEAQCGTSVNVHSSLRDILNQITKPNDVYSFSLASRLYAEERYPILPEYLQCVKELYRGGLEPINFQTAADQARELINSWVESQTNGIIRNVLQPSSVDSQTAMVLVNAIVFKGLWEKAFKDEDTQAMPFRVTEQESKPVQMMYQIGLFRVASMASEKMKILELPFASGTMSMLVLLPDEVSGLEQLESIINFEKLTEWTSSNVMEERKIKVYLPRMKMEEKYNLTSVLMAMGITDVFSSSANLSGISSAESLKISQAVHAAHAEINEAGREVVGSAEAGVDAASVSEEFRADHPFLFCIKHIATNAVLFFGRCVSP
- body temperature [7]: decrease in temperature
